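Test compounds were applied to cells in 96-well plates for 48 hours at 5 doses. TGI denotes the concentration required for complete inhibition of growth.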
What was measured:
Assay in all cases: NCI anticancer screen, dose series, 48 h
EKVX NSCLC = test system: EKVX NSCLC
T-47D breast = test system: T-47D breast
U251 CNS = test system: U251 CNS
CAKI-1 renal = test system: CAKI-1 renal
OVCAR-4 ovarian = test system: OVCAR-4 ovarian
RPMI-8226 leukemia = test system: RPMI-8226 leukemia
786-0 renal = test system: 786-0 renal
HOP-92 NSCLC = test system: HOP-92 NSCLC
DU-145 prostate = test system: DU-145 prostate
PC-3 prostate = test system: PC-3 prostate
M14 melanoma = test system: M14 melanoma
SK-MEL-2 melanoma = test system: SK-MEL-2 melanoma
MDA-MB-435 = test system: MDA-MB-435
SW-620 colon = test system: SW-620 colon
UO-31 renal = test system: UO-31 renal
RXF 393 renal = test system: RXF 393 renal
HOP-62 NSCLC = test system: HOP-62 NSCLC
A498 renal = test system: A498 renal
TK-10 renal = test system: TK-10 renal
NCI-H460 lung = test system: NCI-H460 lung
HT29 colon = test system: HT29 colon
UACC-62 melanoma = test system: UACC-62 melanoma
SF-539 CNS = test system: SF-539 CNS
SNB-19 CNS = test system: SNB-19 CNS
MDA-MB-231 breast = test system: MDA-MB-231 breast
IGROV1 ovarian = test system: IGROV1 ovarian
SK-OV-3 ovarian = test system: SK-OV-3 ovarian
SF-268 CNS = test system: SF-268 CNS
SNB-75 CNS = test system: SNB-75 CNS
K-562 leukemia = test system: K-562 leukemia
HCT-15 colon = test system: HCT-15 colon
NCI-H23 lung = test system: NCI-H23 lung
OVCAR-8 ovarian = test system: OVCAR-8 ovarian
KM12 colon = test system: KM12 colon
SK-MEL-28 melanoma = test system: SK-MEL-28 melanoma
OVCAR-5 ovarian = test system: OVCAR-5 ovarian
BT-549 breast = test system: BT-549 breast
MDA-N = test system: MDA-N
MALME-3M melanoma = test system: MALME-3M melanoma
COLO 205 colon = test system: COLO 205 colon
HS 578T breast = test system: HS 578T breast
NCI-H522 lung = test system: NCI-H522 lung
SF-295 CNS = test system: SF-295 CNS
ACHN renal = test system: ACHN renal
HCT-116 colon = test system: HCT-116 colon
OVCAR-3 ovarian = test system: OVCAR-3 ovarian
MCF7 breast = test system: MCF7 breast
SN12C renal = test system: SN12C renal
UACC-257 melanoma = test system: UACC-257 melanoma
NCI/ADR-RES ovarian = test system: NCI/ADR-RES ovarian
SK-MEL-5 melanoma = test system: SK-MEL-5 melanoma
A549 NSCLC = test system: A549 NSCLC
NCI-H226 lung = test system: NCI-H226 lung
CCRF-CEM leukemia = test system: CCRF-CEM leukemia
LOX IMVI melanoma = test system: LOX IMVI melanoma
HL-60(TB) leukemia = test system: HL-60(TB) leukemia
HCC-2998 colon = test system: HCC-2998 colon

`Cc1cc([N+](=O)[O-])c(C)c(Br)c1C` was tested, and the TGI (EKVX NSCLC) was > 100 µM, the TGI (T-47D breast) was > 100 µM and the TGI (U251 CNS) was > 100 µM. The TGI (CAKI-1 renal) was > 100 µM, the TGI (OVCAR-4 ovarian) was > 100 µM and the TGI (RPMI-8226 leukemia) was > 100 µM. The TGI (786-0 renal) was > 100 µM, the TGI (HOP-92 NSCLC) was > 100 µM and the TGI (DU-145 prostate) was > 100 µM. The TGI (PC-3 prostate) was > 100 µM, the TGI (M14 melanoma) was > 100 µM and the TGI (SK-MEL-2 melanoma) was > 100 µM. The TGI (MDA-MB-435) was > 100 µM, the TGI (SW-620 colon) was > 100 µM and the TGI (UO-31 renal) was > 100 µM. For the same molecule, the TGI (RXF 393 renal) was > 100 µM, the TGI (HOP-62 NSCLC) was > 100 µM and the TGI (A498 renal) was > 100 µM. For the same molecule, the TGI (TK-10 renal) was > 100 µM, the TGI (NCI-H460 lung) was > 100 µM and the TGI (HT29 colon) was > 100 µM. The TGI (UACC-62 melanoma) was > 100 µM, the TGI (SF-539 CNS) was > 100 µM and the TGI (SNB-19 CNS) was > 100 µM. For the same molecule, the TGI (MDA-MB-231 breast) was > 100 µM, the TGI (IGROV1 ovarian) was > 100 µM and the TGI (SK-OV-3 ovarian) was > 100 µM. For the same molecule, the TGI (SF-268 CNS) was > 100 µM, the TGI (SNB-75 CNS) was > 100 µM and the TGI (K-562 leukemia) was > 100 µM. For the same molecule, the TGI (HCT-15 colon) was > 100 µM, the TGI (NCI-H23 lung) was > 100 µM and the TGI (OVCAR-8 ovarian) was > 100 µM. For the same molecule, the TGI (KM12 colon) was > 100 µM, the TGI (SK-MEL-28 melanoma) was > 100 µM and the TGI (OVCAR-5 ovarian) was > 100 µM. For the same molecule, the TGI (BT-549 breast) was > 100 µM, the TGI (MDA-N) was > 100 µM and the TGI (MALME-3M melanoma) was > 100 µM. The TGI (COLO 205 colon) was > 100 µM, the TGI (HS 578T breast) was > 100 µM and the TGI (NCI-H522 lung) was > 100 µM. The TGI (SF-295 CNS) was > 100 µM, the TGI (ACHN renal) was > 100 µM and the TGI (HCT-116 colon) was > 100 µM. For the same molecule, the TGI (OVCAR-3 ovarian) was > 100 µM, the TGI (MCF7 breast) was > 100 µM and the TGI (SN12C renal) was > 100 µM. For the same molecule, the TGI (UACC-257 melanoma) was > 100 µM, the TGI (NCI/ADR-RES ovarian) was > 100 µM and the TGI (SK-MEL-5 melanoma) was > 100 µM. For the same molecule, the TGI (A549 NSCLC) was > 100 µM and the TGI (NCI-H226 lung) was > 100 µM.

In the case of `COc1ccc2nc3n(c2c1)CCc1cc(OC)c(OC)cc1-3`, the TGI (EKVX NSCLC) is reported as > 100 µM, the TGI (T-47D breast) is reported as > 100 µM and the TGI (U251 CNS) is reported as > 100 µM. The TGI (CAKI-1 renal) was > 100 µM, the TGI (OVCAR-4 ovarian) was > 100 µM and the TGI (786-0 renal) was > 100 µM. The TGI (HOP-92 NSCLC) was > 100 µM, the TGI (DU-145 prostate) was > 100 µM and the TGI (PC-3 prostate) was > 100 µM. The TGI (M14 melanoma) was > 100 µM, the TGI (SK-MEL-2 melanoma) was > 100 µM and the TGI (MDA-MB-435) was > 100 µM. The TGI (SW-620 colon) was > 100 µM, the TGI (CCRF-CEM leukemia) was > 100 µM and the TGI (RXF 393 renal) was > 100 µM. The TGI (HOP-62 NSCLC) was > 100 µM, the TGI (A498 renal) was > 100 µM and the TGI (TK-10 renal) was > 100 µM. The TGI (NCI-H460 lung) was > 100 µM, the TGI (HT29 colon) was 95.8 µM and the TGI (UACC-62 melanoma) was > 100 µM. For the same molecule, the TGI (SF-539 CNS) was > 100 µM, the TGI (SNB-19 CNS) was > 100 µM and the TGI (MDA-MB-231 breast) was > 100 µM. For the same molecule, the TGI (SK-OV-3 ovarian) was > 100 µM, the TGI (SF-268 CNS) was > 100 µM and the TGI (SNB-75 CNS) was > 100 µM. The TGI (LOX IMVI melanoma) was > 100 µM, the TGI (K-562 leukemia) was > 100 µM and the TGI (HCT-15 colon) was > 100 µM. The TGI (HL-60(TB) leukemia) was > 100 µM, the TGI (NCI-H23 lung) was > 100 µM and the TGI (OVCAR-8 ovarian) was > 100 µM. The TGI (KM12 colon) was > 100 µM, the TGI (SK-MEL-28 melanoma) was > 100 µM and the TGI (OVCAR-5 ovarian) was > 100 µM. The TGI (BT-549 breast) was 99.2 µM, the TGI (MDA-N) was > 100 µM and the TGI (MALME-3M melanoma) was > 100 µM. The TGI (COLO 205 colon) was 90.8 µM, the TGI (HS 578T breast) was > 100 µM and the TGI (NCI-H522 lung) was > 100 µM. The TGI (SF-295 CNS) was > 100 µM, the TGI (HCC-2998 colon) was 52.9 µM and the TGI (ACHN renal) was > 100 µM. The TGI (HCT-116 colon) was > 100 µM, the TGI (OVCAR-3 ovarian) was > 100 µM and the TGI (MCF7 breast) was > 100 µM. The TGI (SN12C renal) was > 100 µM, the TGI (UACC-257 melanoma) was > 100 µM and the TGI (NCI/ADR-RES ovarian) was > 100 µM. For the same molecule, the TGI (SK-MEL-5 melanoma) was 47.2 µM, the TGI (A549 NSCLC) was > 100 µM and the TGI (NCI-H226 lung) was > 100 µM.

Source: PubChem BioAssay (NCI)
